Measured values taken from patent US7955808B2, “Bitter taste receptors” (Deutsches Institut für Ernährungsorschung, Stiftung des …, priority 2002, dated 2011).
Values belong to the compound of their own block, whether it stands above or below them.

Experiments:
hTAS2R38 = molecular target: T1, hTAS2R38 (Homo sapiens, UniProt P59533); experiment: FLIPR assay, heterologous expression of hTAS2R38; assay type: cell-based
T1 construct: gene-specific primers that span the complete coding region ... contains the first 45 amino acids of the rat somatostatin type 3 receptor
T1 sequence (P59533 1-333 A49P/I296V): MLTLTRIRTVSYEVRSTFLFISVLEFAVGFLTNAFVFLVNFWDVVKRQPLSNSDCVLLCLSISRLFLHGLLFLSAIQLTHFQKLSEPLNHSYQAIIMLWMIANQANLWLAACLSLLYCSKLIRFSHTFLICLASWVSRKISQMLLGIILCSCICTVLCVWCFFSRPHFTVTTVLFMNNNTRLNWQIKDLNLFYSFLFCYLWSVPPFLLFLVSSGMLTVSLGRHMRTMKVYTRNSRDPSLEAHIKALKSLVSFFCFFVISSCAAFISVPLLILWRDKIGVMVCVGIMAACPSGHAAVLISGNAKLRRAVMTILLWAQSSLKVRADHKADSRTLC
Source text: These cells stably express a chimeric G protein constructed from human Gα16 and rat gustducin. Finally, we seeded the transfected cells at a density of 3×10^3 cells per well into 96-well black-wall, clear-bottom microtiter plates (Greiner).
Co-transfection of TAS2Rs with gustducin and phospholipase-Cβ2 into HEK-293 cells. Alternatively, we transfected simultaneously plasmid DNAs encoding one of the TAS2Rs, phospholipase-Cβ2 and α-gustducin into HEK-293 cells using the lipofectamine method. Additional cotransfection of G-protein β and γ-subunits may improve the bitter tastant-induced responses. Thereafter, the transfected cells were seeded at a density of 3×10^3 cells per well into 96-well black-wall, clear-bottom microtiter plates (Greiner).
Thereafter, cells were gently washed in HBS by an automated plate washer (Denley Cellwash, Labsystenms) and transferred to the FLIPR (Molecular Devices). The FLIPR integrates an argon laser excitation source, a 96-well pipettor, and a detection system utilizing a Charged Coupled Device imaging camera. […] Fluorescence data were collected 1 min before and 10 min after stimulation. Data were collected every 6 s before and every 1 s after agonist stimulation. 50 μl of 3× concentrated agonists were delivered within 2 by the integrated 96-well pipettor to the wells containing 100 μl HBS. Agonist responses were quantified using the amplitudes of the fluorescence peaks. We averaged the responses of five wells containing cells expressing the same receptor and that received the same stimulus. Calcium traces were determined in triplicate of mock-transfected cells stimulated with the same concentration of tastant.

hT2R4 receptor = molecular target: T2, hT2R4 receptor (Homo sapiens, UniProt Q9NYW5); conditions: concentrations needed two orders of magnitude above human taste thresholds; cited from earlier work
T2 sequence (Q9NYW5 1-299): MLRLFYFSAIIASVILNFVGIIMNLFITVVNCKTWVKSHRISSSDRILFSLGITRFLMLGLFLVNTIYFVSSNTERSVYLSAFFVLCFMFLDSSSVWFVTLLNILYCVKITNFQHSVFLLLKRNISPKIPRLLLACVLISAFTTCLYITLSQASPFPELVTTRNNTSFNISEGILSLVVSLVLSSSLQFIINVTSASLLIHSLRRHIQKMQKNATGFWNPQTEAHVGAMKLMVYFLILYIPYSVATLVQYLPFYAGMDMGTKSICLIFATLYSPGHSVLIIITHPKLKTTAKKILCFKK

hTAS2R16 [1] = molecular target: T3, hTAS2R16 (Homo sapiens, UniProt Q9NYV7, R222H); experiment: FLIPR calcium assay, hTAS2R16-expressing HEK293/15 transfectants; assay type: cell-based
T3 construct: gene-specific primers that span the complete coding region of the individual hTAS2R genes; first 45 amino acids of rat somatostatin type 3 receptor (cell surface-targeting signal) (N); expressed in transfected cells; host or cells: HEK293/15 cells (HEK293 stably expressing Galpha15), transient transfection
T3 sequence (Q9NYV7 1-291 R222H): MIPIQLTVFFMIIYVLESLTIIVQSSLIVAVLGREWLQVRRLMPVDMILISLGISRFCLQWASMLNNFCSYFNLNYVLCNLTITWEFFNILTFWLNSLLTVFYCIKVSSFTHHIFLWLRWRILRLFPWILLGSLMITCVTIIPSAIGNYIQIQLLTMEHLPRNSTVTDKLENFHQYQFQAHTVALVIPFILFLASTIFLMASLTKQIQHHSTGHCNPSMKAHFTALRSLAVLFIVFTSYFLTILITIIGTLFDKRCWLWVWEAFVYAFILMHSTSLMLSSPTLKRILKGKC
Procedure: A fluorescence imaging plate reader (FLIPR, Molecular Devices) was used to functionally screen cell populations transiently transfected with expression vectors encoding the above-described 24 bitter receptors and to establish concentration-response curves for hTAS2R16 and hTASR10. […] For the FLIPR experiments the HEK293/15 cells were grown to 50% confluence. […] After 48 h the cells in each well were transfected using Lipofectamine 2000 and 24-30 h later were loaded with FIuo4AM (Molecular Probes). Thereafter they were stimulated with bitter compounds (SigmaAldrich, further purified by reversed-phase HPLC to >99% purity). Calcium signals were recorded simultaneously from each well at 1 Hz at 510 nm after excitation at 488 nm and the recordings were corrected for cell density. […] The calculations rest on at least four independent transfection experiments.
EC50 and threshold values obtained with hTAS2R16-expressing transfectants are shown in Table 1 below and the results are described in Example 4.

human panelists [2] = experiment: Human taste experiments: bitter thresholds and dose-response by sensory panel; assay type: in vivo
Procedure: 15 experienced panelists in a sensory panel room at 22-25° C. determined bitter thresholds on three different sessions using a triangle test with tap water as solvent, according to methodology set out in J. Agric. Food Chem., 49, 231-238 (2001), or Mailgaard M et al, “Sensory Evaluation Techniques” (CRC Press LLC, New York 1999). For dose-response relations, bitter tastant concentration series were presented to 10 trained panelists in random order. The panelists ranked the samples in increasing order of intensity and, for each concentration, evaluated bitterness intensity on a scale from 0 to 5 (ref. 24). The dose-response curves of three different sessions were averaged. The intensity values between individuals and separate sessions differed by not more than 0.5 units.

hTAS2R16 [3] = molecular target: T3, hTAS2R16; experiment: Single-cell Ca2+ imaging, hTAS2R16-transfected HEK293/15 cells (selectivity, cross-desensitization); assay type: cell-based
Procedure: A fluorescence imaging plate reader (FLIPR, Molecular Devices) was used to functionally screen cell populations transiently transfected with expression vectors encoding the above-described 24 bitter receptors and to establish concentration-response curves for hTAS2R16 and hTASR10. […] For the FLIPR experiments the HEK293/15 cells were grown to 50% confluence. […] After 48 h the cells in each well were transfected using Lipofectamine 2000 and 24-30 h later were loaded with FIuo4AM (Molecular Probes). Thereafter they were stimulated with bitter compounds (SigmaAldrich, further purified by reversed-phase HPLC to >99% purity). Calcium signals were recorded simultaneously from each well at 1 Hz at 510 nm after excitation at 488 nm and the recordings were corrected for cell density. […]
Single-cell Ca^2+ imaging was performed with the hTAS2R16-transfected HEK293/15 cells as described in Cell 95, 917-926 (1998), but with the following modifications: The Till Photonics imaging system (Munich, Germany) was used in which a monochromator is connected by a quartz fiber lightguide and an epifluorescence condenser to an inverted Olympus IX50 microscope equipped with a UApo/340 40×1.35 oil-immersion lens. […] The 5 s interval camera pictures of all cells in the microscope field of vision permanently were stored and analyzed offline. […]

human panelists [4] = experiment: Human taste adaptation experiment; assay type: in vivo; conditions: for bitterness after prolonged stimulation with phenyl-beta-D-glucopyranoside (cross-adaptation): in vivo
Procedure: To investigate adaptation, the 8 panelists first maintained aqueous solutions (5 ml) of phenyl-β-D-glucopyranoside (8 mM), phenyl-alpha-D-glucopyranoside (180 mM), salicin (8 mM), or helicin (8 mM) for 15 s in their oral cavities and evaluated the bitter intensity as described above. After 30 min, they kept a denatonium benzoate solution (5 ml, 0.0003 mM) for 15 s in their mouth and evaluated its bitterness. The panelists spat off the denatonium benzoate solution, took up the phenyl-β-D-glucopyranoside or the phenyl-alpha-D-glucopyranoside solutions orally for 120 s or 180 s and judged their bitterness intensity after 15, 30, 60, 120 and 180s. Thereafter, the panelists spat off these solutions and then sequentially took up salicin, helicin (5 ml, 8 mM) and denatonium benzoate (5 ml, 0.0003 mM) and evaluated bitterness intensities of these solutions after 15 s. After an additional 30 min, the first experiment was repeated. The data of three different sessions for each panelist were averaged. Intensity values between individuals and separate sessions differed by not more than ±0.5 units.

hTAS2R16 [5] = molecular target: T3, hTAS2R16; experiment: FLIPR assay, heterologous expression of hTAS2R16; assay type: cell-based; conditions: hTAS2R16
Source text: (§1) Transient transfection of TAS2Rs into HEK-293T-Gα16gustducin44 cells.

hTAS2R10 [6] = molecular target: T4, hTAS2R10 (Homo sapiens, UniProt Q9NYW0, T156M); experiment: FLIPR assay, heterologous expression of hTAS2R10; assay type: cell-based
T4 construct: gene-specific primers that span the complete coding region of the individual hTAS2R genes; first 45 amino acids of rat somatostatin type 3 receptor (cell surface-targeting signal) (N); expressed in transfected cells; host or cells: HEK-293T-Gα16gustducin44 cells (alternatively HEK-293 co-transfected with phospholipase-Cβ2 and α-gustducin)
T4 sequence (Q9NYW0 1-307 T156M): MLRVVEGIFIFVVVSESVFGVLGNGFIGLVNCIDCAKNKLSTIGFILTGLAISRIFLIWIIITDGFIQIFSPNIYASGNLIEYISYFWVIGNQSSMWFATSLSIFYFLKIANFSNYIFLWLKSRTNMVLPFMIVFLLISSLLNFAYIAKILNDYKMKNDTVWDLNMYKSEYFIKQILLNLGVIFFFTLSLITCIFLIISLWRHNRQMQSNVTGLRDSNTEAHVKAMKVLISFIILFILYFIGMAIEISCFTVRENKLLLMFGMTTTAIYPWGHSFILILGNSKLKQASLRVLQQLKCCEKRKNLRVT
Source text: as §1

hTAS2R14 = molecular target: T5, hTAS2R14 (Homo sapiens, UniProt Q9NYV8); experiment: FLIPR assay, heterologous expression of hTAS2R14; assay type: cell-based
T5 construct: gene-specific primers that span the complete coding region of the individual hTAS2R genes; first 45 amino acids of rat somatostatin type 3 receptor (cell surface-targeting signal) (N); expressed in transfected cells; host or cells: HEK-293T-Gα16gustducin44 cells (alternatively HEK-293 co-transfected with phospholipase-Cβ2 and α-gustducin)
T5 sequence (Q9NYV8 1-317): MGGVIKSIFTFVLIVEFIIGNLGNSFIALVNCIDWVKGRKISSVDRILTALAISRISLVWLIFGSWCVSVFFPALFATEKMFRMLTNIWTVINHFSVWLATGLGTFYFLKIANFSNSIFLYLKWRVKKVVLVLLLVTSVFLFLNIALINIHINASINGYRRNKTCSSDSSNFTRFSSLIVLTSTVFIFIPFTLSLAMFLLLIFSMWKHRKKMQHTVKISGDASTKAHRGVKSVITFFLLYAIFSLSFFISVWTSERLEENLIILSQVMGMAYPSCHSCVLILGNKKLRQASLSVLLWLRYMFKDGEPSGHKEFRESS
Source text: as §1

hTAS2R10 [7] = molecular target: T4, hTAS2R10; experiment: FLIPR calcium assay, hTAS2R10-expressing HEK293/15 transfectants; assay type: cell-based
Procedure: A fluorescence imaging plate reader (FLIPR, Molecular Devices) was used to functionally screen cell populations transiently transfected with expression vectors encoding the above-described 24 bitter receptors and to establish concentration-response curves for hTAS2R16 and hTASR10. […] For the FLIPR experiments the HEK293/15 cells were grown to 50% confluence. The cells were then seeded at a density of 3×10^3 cells per well into 96-well black-wall, clear-bottom microtiter plates (Greiner). After 48 h the cells in each well were transfected using Lipofectamine 2000 and 24-30 h later were loaded with FIuo4AM (Molecular Probes). […] The responses of five wells containing cells expressing the same receptor and that received the same stimulus (i.e., the same compound at the same concentration) were averaged. Calcium traces were subtracted that were determined in triplicate of mock-transfected cells stimulated with the same concentration of tastant. The calculations rest on at least four independent transfection experiments.

SMILES: CCCc1cc(=O)[nH]c(=S)[nH]1 [6-Propyl-2-thiouracil]
Approx. Threshold (hTAS2R38): 0.3 µM
receptor activation (in words) (hTAS2R38): activated
EC50 (hTAS2R38; read-out: EC50): 2 µM
in vitro response of the receptor (hT2R4 receptor): provided a response

SMILES: OCc1ccccc1O[C@@H]1O[C@H](CO)[C@@H](O)[C@H](O)[C@H]1O [Compound 2, salicin]
EC50 (hTAS2R16 [1]): 1400 µM
Threshold Value FLIPR (hTAS2R16 [1]): 0.07 ± 0.02 mM
Threshold Value Human (human panelists [2]; bitter threshold, triangle test, tap water): 0.2 ± 0.1 mM
EC50 (human panelists [2]; bitterness intensity dose-response): 1100 µM
response after repeated stimulation with phenyl-beta-D-glucopyranoside (cross-desensitization) (hTAS2R16 [3]; hTAS2R16-expressing cells): largely diminished responses
initial bitterness score by test panel (human panelists [4]; 8 mM, 15 s): equally intensely bitter
bitterness after prolonged stimulation with phenyl-beta-D-glucopyranoside (cross-adaptation) (human panelists [4]): less bitter
Threshold (hTAS2R16 [5]): 0.07 ± 0.02 mM
EC50 (hTAS2R16 [5]; read-out: EC50): 1400 ± 200 µM

SMILES: O=C1C[C@@H]2OCC=C3CN4CC[C@]56c7ccccc7N1[C@H]5[C@H]2[C@H]3C[C@H]46 [Strychnine]
EC50 (hTAS2R10 [7]): 5 to 20 µM
threshold of activation (hTAS2R10 [7]; hTAS2R10 transfectants): approximately 0.1 μM
EC50 (hTAS2R10 [6]): 40 µM
Approx. Threshold (hTAS2R10 [6]; hTAS2R10): 0.003 mM
receptor activation (in words) (hTAS2R10 [6]; hTAS2R10): activated

SMILES: CC[N+](CC)(CC(=O)Nc1c(C)cccc1C)Cc1ccccc1 [denatonium]
in vitro response of the receptor (hT2R4 receptor): provided a response

SMILES: N[C@@H](Cc1c[nH]cn1)C(=O)O [histidine]
receptor activation (in words) (hTAS2R14): activated

SMILES: CC(C)C[C@H](N)C(=O)O [leucine]
receptor activation (in words) (hTAS2R14): activated

Continued, in another order:

Approx. Threshold (hTAS2R10 [6]; hTAS2R10): 0.003 mM
receptor activation (in words) (hTAS2R10 [6]; hTAS2R10): activated
EC50 (hTAS2R10 [6]; hTAS2R10, read-out: EC50): 70 µM
SMILES: CC[N+](CC)(CC(=O)Nc1c(C)cccc1C)Cc1ccccc1.O=C([O-])c1ccccc1 [Denatonium benzoate]
activation of TAS2R16 (hTAS2R16 [3]): cannot activate
bitterness after prolonged stimulation with phenyl-beta-D-glucopyranoside (cross-adaptation) (human panelists [4]): not

reacts at (hTAS2R14): 1 mM
receptor activation (in words) (hTAS2R14): activated
SMILES: N[C@@H](Cc1ccc(O)cc1)C(=O)O [L-Tyrosine]

receptor activation (in words) (hTAS2R14): activated
SMILES: N[C@@H](Cc1ccccc1)C(=O)O [phenylalanine]

receptor activation (in words) (hTAS2R14): activated
SMILES: N[C@@H](Cc1c[nH]c2ccccc12)C(=O)O [tryptophan]
